Earlier results, collected in paper PMC9112550, “Optimization of the antimicrobial peptide Bac7 by deep mutational scanning” (BMC Biology, 2022).

Tested on: Salmonella typhimurium
Conditions: 30 mg kg^−1, mice infected with Salmonella typhimurium intraperitoneally
Excerpt: Lastly, it is hard to judge if the activity increase of Bac7PS compared to Bac7_1-23 measured in vitro can be translated to in vivo experiments. […] In our study, all untreated mice already ...

Substance: Bac7_1-35: Bac7_1-35 (35 amino acid long) (RRIRPRPPRLPRPRPRPLPFPRPGPRPIPRPLPFP; Bactenecin-7; UniProt P19661 131-165, looked up, fragment)
- efficacy: 36%
- mean survival (untreated control 10 days): 24.5 days
